Values quoted from earlier work, collected in patent publication US20240307504A1, “INTRANASAL FORMULATIONS AND DELIVERY OF SOMATOSTATIN MIMETICS AND USES THEREOF” (NBO PHARMA LLC, priority 2021, published 2024).
Read-outs that look alike come from different tables or passages of the source.

C[C@@H](O)[C@@H]1NC(=O)[C@H](CCCCN)NC(=O)[C@@H](Cc2c[nH]c3ccccc23)NC(=O)[C@H](Cc2ccccc2)NC(=O)[C@@H](NC(=O)[C@H](N)Cc2ccccc2)CSSC[C@@H](C(=O)N[C@H](CO)[C@@H](C)O)NC1=O [Octreotide]
biological half-life (after intravenous administration): 72 minutes | biological half-life (after subcutaneous administration): 102 minutes

L-alanyl-glycyl-L-cysteinyl-L-lysyl-L-asparagyl-L-phenylalanyl-L-phenylalanyl-L-tryptophyl-L-lysyl-L-threonyl-L-phenylalanyl-L-threonyl-L-seryl-L-cysteine (3->14)-disulfide [somatostatin]
biological half-life (in vivo): 2-3 minutes
